Experimental data taken from article PMC3648344 (BMC Structural Biology, 2013).

Target: T1, ecMnmC (Escherichia coli, UniProt P77182)
T1 construct: gene mnmC; full-length bifunctional MnmC, 668 residues, ~75 kDa monomer; N-terminal His6 tag removed with thrombin; pET30a-LIC, expressed in E. coli BL21(DE3)
T1 sequence (P77182 1-668): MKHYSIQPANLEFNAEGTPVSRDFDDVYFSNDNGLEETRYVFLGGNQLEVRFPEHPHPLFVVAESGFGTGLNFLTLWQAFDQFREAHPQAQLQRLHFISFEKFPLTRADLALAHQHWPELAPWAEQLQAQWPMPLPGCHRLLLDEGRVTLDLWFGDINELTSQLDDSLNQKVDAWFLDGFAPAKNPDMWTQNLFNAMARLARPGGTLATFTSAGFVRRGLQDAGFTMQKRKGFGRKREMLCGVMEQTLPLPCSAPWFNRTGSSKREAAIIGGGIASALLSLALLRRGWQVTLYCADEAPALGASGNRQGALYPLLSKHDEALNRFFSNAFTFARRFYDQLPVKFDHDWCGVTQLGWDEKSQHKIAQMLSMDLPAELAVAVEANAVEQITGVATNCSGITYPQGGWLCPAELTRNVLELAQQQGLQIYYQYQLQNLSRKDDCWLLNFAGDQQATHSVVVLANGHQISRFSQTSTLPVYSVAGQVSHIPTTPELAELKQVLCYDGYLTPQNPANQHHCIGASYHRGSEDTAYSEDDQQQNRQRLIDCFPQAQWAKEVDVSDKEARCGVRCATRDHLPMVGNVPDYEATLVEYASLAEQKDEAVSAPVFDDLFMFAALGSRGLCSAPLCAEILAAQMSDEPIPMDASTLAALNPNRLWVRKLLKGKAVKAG
Experiment: X-ray crystal structure, […] Å
Assay type: binding

SMILES: C[S+](CC[C@H](N)C(=O)O)C[C@H]1O[C@@H](n2cnc3c(N)ncnc32)[C@H](O)[C@@H]1O (some centres unmarked) [SAM]
- X-ray crystal structure, 2.55 Å (crystals soaked with 5 mM SAM, FAD bound, MnmC2 domain site): Our structures show that ecMnmC and ypMnmC bind SAM in an almost identical manner

SMILES: Cc1cc2nc3c(=O)[nH]c(=O)nc-3n(C[C@H](O)[C@H](O)[C@H](O)COP(=O)(O)OP(=O)(O)OC[C@H]3O[C@@H](n4cnc5c(N)ncnc54)[C@H](O)[C@@H]3O)c2cc1C [FAD]
- X-ray crystal structure, 2.55 Å (co-purified FAD, none added, SAM bound, MnmC1 domain site): All three MnmC structures unambiguously exhibited bound FAD (Figure 4A)
